In ChEMBL document CHEMBL1201862, “PubChem BioAssay data set” (2004):
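Assay format: 96-well plates, 48-hour exposure. GI50 marks 50% less growth.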 Active and inactive are the calls of the source. No stated cut-off is given here; in the data, active = GI50 up to about 1.1 µM and inactive = higher.

Assays:
Assay in all cases: NCI tumour cell line growth inhibition, 48 h
786-0 = tested on: 786-0
A549 = tested on: A549
ACHN = tested on: ACHN
BT-549 = tested on: BT-549
CAKI-1 = tested on: CAKI-1
CCRF-CEM = tested on: CCRF-CEM
COLO 205 = tested on: COLO 205
DU-145 = tested on: DU-145
EKVX = tested on: EKVX
HCC 2998 = tested on: HCC 2998
HCT-116 = tested on: HCT-116
HCT-15 = tested on: HCT-15
HL-60 = tested on: HL-60
HOP-62 = tested on: HOP-62
HOP-92 = tested on: HOP-92
HT-29 = tested on: HT-29
Hs-578T = tested on: Hs-578T
IGROV-1 = tested on: IGROV-1
K562 = tested on: K562
KM12 = tested on: KM12
LOX IMVI = tested on: LOX IMVI
M14 = tested on: M14
MCF7 = tested on: MCF7
MDA-MB-231 = tested on: MDA-MB-231
MDA-MB-435 = tested on: MDA-MB-435
MDA-N = tested on: MDA-N
MOLT-4 = tested on: MOLT-4
Malme-3M = tested on: Malme-3M
NCI-H226 = tested on: NCI-H226
NCI-H23 = tested on: NCI-H23
NCI-H460 = tested on: NCI-H460
NCI-H522 = tested on: NCI-H522
NCI/ADR-RES = tested on: NCI/ADR-RES
OVCAR-3 = tested on: OVCAR-3
OVCAR-4 = tested on: OVCAR-4
OVCAR-5 = tested on: OVCAR-5
OVCAR-8 = tested on: OVCAR-8
PC-3 = tested on: PC-3
RPMI-8226 = tested on: RPMI-8226
SF-268 = tested on: SF-268
SF-295 = tested on: SF-295
SF-539 = tested on: SF-539
SK-MEL-28 = tested on: SK-MEL-28
SK-MEL-2 = tested on: SK-MEL-2
SK-OV-3 = tested on: SK-OV-3
SN12C = tested on: SN12C
SNB-19 = tested on: SNB-19
SNB-75 = tested on: SNB-75
SR = tested on: SR
SW-620 = tested on: SW-620
TK-10 = tested on: TK-10
U-251 = tested on: U-251
UACC-257 = tested on: UACC-257
UACC-62 = tested on: UACC-62
UO-31 = tested on: UO-31
A498 = tested on: A498
SK-MEL-5 = tested on: SK-MEL-5
T47D = tested on: T47D

SMILES: Cc1cc(C)c2ccc(N3CCNCC3)nc2n1
- GI50 (786-0): 67.9 µM (inactive)
- GI50 (A549): > 100 µM (inactive)
- GI50 (ACHN): > 100 µM (inactive)
- GI50 (BT-549): > 100 µM (inactive)
- GI50 (CAKI-1): > 100 µM (inactive)
- GI50 (CCRF-CEM): > 100 µM (inactive)
- GI50 (COLO 205): 64.6 µM (inactive)
- GI50 (DU-145): > 100 µM (inactive)
- GI50 (EKVX): > 100 µM (inactive)
- GI50 (HCC 2998): > 100 µM (inactive)
- GI50 (HCT-116): 84.1 µM (inactive)
- GI50 (HCT-15): > 100 µM
- GI50 (HL-60): 55.7 µM (inactive)
- GI50 (HOP-62): > 100 µM (inactive)
- GI50 (HOP-92): > 100 µM (inactive)
- GI50 (HT-29): 57.7 µM (inactive)
- GI50 (Hs-578T): > 100 µM (inactive)
- GI50 (IGROV-1): > 100 µM (inactive)
- GI50 (K562): > 100 µM (inactive)
- GI50 (KM12): > 100 µM (inactive)
- GI50 (LOX IMVI): > 100 µM (inactive)
- GI50 (M14): > 100 µM (inactive)
- GI50 (MCF7): > 100 µM (inactive)
- GI50 (MDA-MB-231): > 100 µM (inactive)
- GI50 (MDA-MB-435): > 100 µM (inactive)
- GI50 (MDA-N): > 100 µM (inactive)
- GI50 (MOLT-4): > 100 µM (inactive)
- GI50 (Malme-3M): > 100 µM (inactive)
- GI50 (NCI-H226): > 100 µM (inactive)
- GI50 (NCI-H23): > 100 µM (inactive)
- GI50 (NCI-H460): > 100 µM (inactive)
- GI50 (NCI-H522): > 100 µM (inactive)
- GI50 (NCI/ADR-RES): > 100 µM (inactive)
- GI50 (OVCAR-3): > 100 µM (inactive)
- GI50 (OVCAR-4): > 100 µM (inactive)
- GI50 (OVCAR-5): > 100 µM (inactive)
- GI50 (OVCAR-8): > 100 µM (inactive)
- GI50 (PC-3): > 100 µM (inactive)
- GI50 (RPMI-8226): > 100 µM (inactive)
- GI50 (SF-268): > 100 µM (inactive)
- GI50 (SF-295): > 100 µM (inactive)
- GI50 (SF-539): > 100 µM (inactive)
- GI50 (SK-MEL-28): > 100 µM (inactive)
- GI50 (SK-MEL-2): > 100 µM (inactive)
- GI50 (SK-OV-3): > 100 µM (inactive)
- GI50 (SN12C): > 100 µM (inactive)
- GI50 (SNB-19): > 100 µM (inactive)
- GI50 (SNB-75): > 100 µM (inactive)
- GI50 (SR): > 100 µM (inactive)
- GI50 (SW-620): > 100 µM (inactive)
- GI50 (TK-10): > 100 µM (inactive)
- GI50 (U-251): > 100 µM (inactive)
- GI50 (UACC-257): > 100 µM (inactive)
- GI50 (UACC-62): > 100 µM (inactive)
- GI50 (UO-31): 41.7 µM (inactive)

SMILES: C=CCOCn1cnc2c(N)ncnc21
- GI50 (786-0): > 100 µM (inactive)
- GI50 (A498): > 100 µM (inactive)
- GI50 (A549): > 100 µM (inactive)
- GI50 (ACHN): > 100 µM (inactive)
- GI50 (CAKI-1): > 100 µM (inactive)
- GI50 (CCRF-CEM): > 100 µM (inactive)
- GI50 (COLO 205): > 100 µM (inactive)
- GI50 (DU-145): > 100 µM (inactive)
- GI50 (EKVX): > 100 µM (inactive)
- GI50 (HCC 2998): > 100 µM (inactive)
- GI50 (HCT-116): > 100 µM (inactive)
- GI50 (HCT-15): > 100 µM
- GI50 (HL-60): > 100 µM (inactive)
- GI50 (HOP-62): > 100 µM (inactive)
- GI50 (HT-29): > 100 µM (inactive)
- GI50 (Hs-578T): > 100 µM (inactive)
- GI50 (IGROV-1): > 100 µM (inactive)
- GI50 (K562): > 100 µM (inactive)
- GI50 (KM12): > 100 µM (inactive)
- GI50 (LOX IMVI): > 100 µM (inactive)
- GI50 (M14): > 100 µM (inactive)
- GI50 (MCF7): > 100 µM (inactive)
- GI50 (MDA-MB-231): > 100 µM (inactive)
- GI50 (MDA-MB-435): > 100 µM (inactive)
- GI50 (MDA-N): > 100 µM (inactive)
- GI50 (MOLT-4): > 100 µM (inactive)
- GI50 (Malme-3M): > 100 µM (inactive)
- GI50 (NCI-H226): > 100 µM (inactive)
- GI50 (NCI-H23): > 100 µM (inactive)
- GI50 (NCI-H460): > 100 µM (inactive)
- GI50 (NCI/ADR-RES): > 100 µM (inactive)
- GI50 (OVCAR-4): > 100 µM (inactive)
- GI50 (OVCAR-5): > 100 µM (inactive)
- GI50 (OVCAR-8): > 100 µM (inactive)
- GI50 (PC-3): > 100 µM (inactive)
- GI50 (RPMI-8226): > 100 µM (inactive)
- GI50 (SF-268): > 100 µM (inactive)
- GI50 (SF-295): > 100 µM (inactive)
- GI50 (SF-539): > 100 µM (inactive)
- GI50 (SK-MEL-28): > 100 µM (inactive)
- GI50 (SK-MEL-2): > 100 µM (inactive)
- GI50 (SK-MEL-5): > 100 µM (inactive)
- GI50 (SK-OV-3): > 100 µM (inactive)
- GI50 (SN12C): > 100 µM (inactive)
- GI50 (SNB-19): > 100 µM (inactive)
- GI50 (SNB-75): > 100 µM (inactive)
- GI50 (SR): > 100 µM (inactive)
- GI50 (SW-620): > 100 µM (inactive)
- GI50 (T47D): > 100 µM (inactive)
- GI50 (TK-10): > 100 µM (inactive)
- GI50 (U-251): > 100 µM (inactive)
- GI50 (UACC-257): > 100 µM (inactive)
- GI50 (UACC-62): > 100 µM (inactive)
- GI50 (UO-31): > 100 µM (inactive)
